Here are results for seven compounds from patent US20260091050A1, “ADVANTAGEOUS ANTI-HCV COMBINATION THERAPY” (Atea Pharmaceuticals, Inc., priority 2021, published 2026).

A short description of data set [1]: Storage stability of Compound 1 forms and amorphous salts at 25° C./60% RH for 14 days (HPLC, observation). Particulars: for Stability on storage: 14 days (2 weeks) at 25° C./60% RH. The protocol:
This initial characterization was followed by storage at 25° C./60% relative humidity (RH) for 14 days with analysis by HPLC and XRPD after 7 and 14 days. FIG. 4A is the XRPD after 14 days at 25° C./60% (RH).
The samples were then frozen with the solvent removed by lyophilization.
The samples were then subjected to storage at 25° C./60% relative humidity (RH) for 14 days with analysis by HPLC and XRPD after 7 (FIG. 4B) and 14 days (FIG. 5A).

In data set [2] the target is human mitochondrial RNA-dependent RNA polymerase (POLRMT) (Homo sapiens, UniProt O00411). Nature of the data set: Incorporation of nucleotide analog triphosphates by human mitochondrial RNA polymerase. Type of data set: biochemical. How it is done:
The incorporation of these analogs by human mitochondrial RNA-dependent RNA polymerase (POLRMT) were determined according to Arnold et al. (Sensitivity of Mitochondrial Transcription and Resistance of RNA Polymerase II Dependent Nuclear Transcription to Antiviral Ribonucleotides. PLoS Pathog., 2012, 8, e1003030).

[3] abbreviates: incorporation by human mitochondrial RNA polymerase.

pKd: −log10 of the molar value.

human mitochondrial RNA-dependent RNA polymerase (POLRMT), sequence (O00411 42-1230): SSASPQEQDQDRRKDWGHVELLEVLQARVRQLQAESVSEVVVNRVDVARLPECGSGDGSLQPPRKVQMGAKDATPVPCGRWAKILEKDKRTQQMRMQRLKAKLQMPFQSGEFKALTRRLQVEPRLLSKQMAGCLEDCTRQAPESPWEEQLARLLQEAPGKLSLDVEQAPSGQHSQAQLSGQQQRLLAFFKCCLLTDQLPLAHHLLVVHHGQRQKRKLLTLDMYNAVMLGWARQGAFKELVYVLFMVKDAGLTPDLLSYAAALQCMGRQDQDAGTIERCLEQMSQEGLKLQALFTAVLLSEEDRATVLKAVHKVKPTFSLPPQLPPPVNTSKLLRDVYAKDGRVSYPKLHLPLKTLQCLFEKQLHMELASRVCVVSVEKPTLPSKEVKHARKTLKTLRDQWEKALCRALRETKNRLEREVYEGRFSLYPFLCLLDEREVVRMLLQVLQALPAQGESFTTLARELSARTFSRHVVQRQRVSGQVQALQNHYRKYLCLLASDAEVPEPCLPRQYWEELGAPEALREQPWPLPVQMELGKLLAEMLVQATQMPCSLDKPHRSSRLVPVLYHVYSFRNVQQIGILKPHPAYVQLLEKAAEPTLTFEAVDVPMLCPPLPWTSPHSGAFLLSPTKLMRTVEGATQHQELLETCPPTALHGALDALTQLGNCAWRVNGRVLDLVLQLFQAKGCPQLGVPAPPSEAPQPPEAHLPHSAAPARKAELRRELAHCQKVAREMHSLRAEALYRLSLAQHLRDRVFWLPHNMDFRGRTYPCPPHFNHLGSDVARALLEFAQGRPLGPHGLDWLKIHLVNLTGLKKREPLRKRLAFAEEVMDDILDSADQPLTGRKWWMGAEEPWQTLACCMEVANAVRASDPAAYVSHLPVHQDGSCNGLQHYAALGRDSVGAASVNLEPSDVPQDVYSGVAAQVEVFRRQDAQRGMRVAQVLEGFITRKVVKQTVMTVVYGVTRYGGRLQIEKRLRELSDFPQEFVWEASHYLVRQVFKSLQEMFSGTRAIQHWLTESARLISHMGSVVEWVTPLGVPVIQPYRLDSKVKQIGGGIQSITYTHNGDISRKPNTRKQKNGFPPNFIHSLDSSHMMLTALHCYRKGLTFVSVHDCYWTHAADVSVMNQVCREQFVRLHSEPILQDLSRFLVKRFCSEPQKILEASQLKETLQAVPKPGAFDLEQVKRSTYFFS

In the case of `CNc1nc(N)nc2c1ncn2[C@@H]1O[C@H](CO[P@@](=O)(N[C@@H](C)C(=O)OC(C)C)Oc2ccccc2)[C@@H](O)[C@@]1(C)F` [Sample 1-9], the HPLC in data set [1] (0 days at 25° C./60% RH) stood at 98.7; in data set [1] (7 days at 25° C./60% RH) it was 98.1; in data set [1] (14 days at 25° C./60% RH) it was 96.4. Also, the Observation result in data set [1] (0 days at 25° C./60% RH), in data set [1] (7 days at 25° C./60% RH) and in data set [1] (14 days at 25° C./60% RH) was “White solid” throughout. For the same compound, the Stability on storage entry in data set [1] is “physically and chemically stable”.
As to `C[C@@]1(O)[C@H](O)[C@@H](COP(=O)(O)OP(=O)(O)OP(=O)(O)O)O[C@H]1n1cnc2c(=O)[nH]c(N)nc21` [2′-C-methyl GTP], in data set [2] (setting [3]), the Kpol worked out at 0.051 s⁻¹.
Take `CNc1nc(N)nc2c1ncn2[C@@H]1O[C@H](CO[P@@](=O)(N[C@@H](C)C(=O)OC(C)C)Oc2ccccc2)[C@@H](O)[C@@]1(C)F` [Sample 1-2, isopropyl((S)-(((2R,3R,4R,5R)-5-(2-amino-6-(methylamino)-9H-purin-9-yl)-4-fluoro-3-hydroxy-4-methyltetrahydrofuran-2-yl)methoxy)(phenoxy)phosphoryl)-L-alaninate]: the HPLC is 99.1 in data set [1] (0 days at 25° C./60% RH), 99.2 in data set [1] (7 days at 25° C./60% RH) and 99.0 in data set [1] (14 days at 25° C./60% RH). Further, the Observation entry in data set [1] (0 days at 25° C./60% RH), in data set [1] (7 days at 25° C./60% RH) and in data set [1] (14 days at 25° C./60% RH) was “White solid” each time. Moreover, the Stability on storage entry in data set [1] was “stable”.
Turning to `CNc1nc(N)nc2c1ncn2[C@@H]1O[C@H](CO[P@@](=O)(N[C@@H](C)C(=O)OC(C)C)Oc2ccccc2)[C@@H](O)[C@@]1(C)F` [Sample 1-1, isopropyl((S)-(((2R,3R,4R,5R)-5-(2-amino-6-(methylamino)-9H-purin-9-yl)-4-fluoro-3-hydroxy-4-methyltetrahydrofuran-2-yl)methoxy)(phenoxy)phosphoryl)-L-alaninate], the HPLC in data set [1] (0 days at 25° C./60% RH) is 98.6; in data set [1] (7 days at 25° C./60% RH), 98.7; in data set [1] (14 days at 25° C./60% RH) it was 98.5. The Observation entry in data set [1] (0 days at 25° C./60% RH), in data set [1] (7 days at 25° C./60% RH) and in data set [1] (14 days at 25° C./60% RH) was “White solid” in each case. The Stability on storage result in data set [1] is “stable”.
As to `CNc1nc(N)nc2c1ncn2[C@@H]1O[C@H](CO[P@@](=O)(N[C@@H](C)C(=O)OC(C)C)Oc2ccccc2)[C@@H](O)[C@@]1(C)F` [Sample 1-3], the HPLC is 99.7 in data set [1] (0 days at 25° C./60% RH), 99.6 in data set [1] (7 days at 25° C./60% RH) and 99.4 in data set [1] (14 days at 25° C./60% RH). Further, the Observation entry in data set [1] (0 days at 25° C./60% RH), in data set [1] (7 days at 25° C./60% RH) and in data set [1] (14 days at 25° C./60% RH) was “White solid” each time.
On to `C[C@@]1(F)[C@H](O)C(CO[P@@](=O)(O)OP(=O)(O)OP(=O)(O)O)O[C@H]1n1ccc(=O)[nH]c1=O` (stereo partly shown) [2′-deoxy-2′-F-2′-C-methyl UTP], for which the Kpol in data set [2] (setting [3]) was 0.00034 s⁻¹.
For the compound `C[C@@]1(F)[C@H](O)[C@@H](COP(=O)(O)OP(=O)(O)OP(=O)(O)O)O[C@H]1n1cnc2c(=O)[nH]c(N)nc21` [metabolite 1-6], the “incorporation by human mitochondrial RNA polymerase” value in data set [2] is “poorly incorporated”. Moreover, the “Relative Efficiency” value in data set [2] ((Kpol/Kd, app)analog nucleotide/(Kpol/Kd, app)natural nucleotide) is 2.2 × 10^−6. Further, in data set [2] (setting [3]), the Kpol came out at 0.0017 s⁻¹ and the “Kpol/Kd, app” value stood at 8.3 M⁻¹ s⁻¹. The pKd (commonly the Kd on a negative log10 scale, so that one unit is a factor of ten) in data set [2] (incorporation by human mitochondrial RNA polymerase, read-out: Kd, app) is 3.69.
